Data published in ChEMBL document CHEMBL4811258, “Potent Antimalarials with Development Potential Identified by Structure-Guided Computational Optimization of a Pyrrole-Based Dihydroorotate Dehydrogenase Inhibitor Series” (J Med Chem, 2021).
pEC50, pIC50: −log10 of the molar value. Active and inactive are the calls of the source. No cut-off for these calls is given here.

Columns and labels:
[1] = Inhibition of Plasmodium falciparum DHODH expressed in Escherichia coli BL21-DE3 using L-dihydroorotate as substrate by steady-state DCIP method
[2] = biological target: Dihydroorotate dehydrogenase (quinone), mitochondrial (Homo sapiens, UniProt Q02127); type: ADME
Sequence of Dihydroorotate dehydrogenase (quinone), mitochondrial (Homo sapiens, UniProt Q02127) (Q02127 whole entry): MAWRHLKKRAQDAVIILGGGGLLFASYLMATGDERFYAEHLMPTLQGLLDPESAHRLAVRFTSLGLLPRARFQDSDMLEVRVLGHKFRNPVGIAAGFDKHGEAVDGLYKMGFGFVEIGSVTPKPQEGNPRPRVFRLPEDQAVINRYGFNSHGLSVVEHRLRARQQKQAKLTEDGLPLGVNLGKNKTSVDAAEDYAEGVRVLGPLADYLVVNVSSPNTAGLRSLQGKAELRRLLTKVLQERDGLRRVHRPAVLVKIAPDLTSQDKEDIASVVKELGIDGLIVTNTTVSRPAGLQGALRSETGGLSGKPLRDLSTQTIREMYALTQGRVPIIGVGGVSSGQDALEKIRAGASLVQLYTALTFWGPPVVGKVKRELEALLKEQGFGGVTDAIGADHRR

[3] = tested on: Plasmodium falciparum; assay: microbe, parasite or virus in culture; details: 3D7, 72 h
[4] = Inhibition of Plasmodium vivax DHODH expressed in Escherichia coli BL21-DE3 using L-dihydroorotate as substrate by steady-state DCIP method
[5] = Lipophilicity, logD of compound at pH 7.4; type: physicochemical; details: buffer
[6] = tested on: Plasmodium falciparum
[7] = Oral bioavailability in mouse at 19 mg/kg; type: ADME, organism-based; details: in vivo
[8] = biological target: Cytochrome P450 3A4 (Homo sapiens, UniProt P08684)
Sequence of Cytochrome P450 3A4 (P08684 whole entry): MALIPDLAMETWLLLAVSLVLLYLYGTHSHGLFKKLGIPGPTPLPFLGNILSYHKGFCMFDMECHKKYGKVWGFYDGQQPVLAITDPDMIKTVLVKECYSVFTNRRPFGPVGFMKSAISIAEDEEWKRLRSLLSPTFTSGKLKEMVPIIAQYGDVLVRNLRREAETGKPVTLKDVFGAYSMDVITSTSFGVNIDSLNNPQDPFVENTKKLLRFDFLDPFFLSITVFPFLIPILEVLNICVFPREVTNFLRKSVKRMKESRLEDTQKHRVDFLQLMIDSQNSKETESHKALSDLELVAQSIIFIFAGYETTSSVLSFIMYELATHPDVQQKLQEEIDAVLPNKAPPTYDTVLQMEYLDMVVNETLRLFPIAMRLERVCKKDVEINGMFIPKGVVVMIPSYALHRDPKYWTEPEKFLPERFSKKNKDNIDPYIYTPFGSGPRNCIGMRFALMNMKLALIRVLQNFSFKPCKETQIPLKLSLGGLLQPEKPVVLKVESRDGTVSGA

[9] = tested on: HepG2; assay: Cytotoxicity against human HepG2 cells; type: cell-based
[10] = Mutagenicity in Salmonella typhimurium by Ames test; type: toxicity; details: salmonella enterica subsp. enterica serovar typhimurium
[11] = tested on: L1210; assay: Cytotoxicity against mouse L1210 cells; type: cell-based
[12] = biological target: Dihydroorotate dehydrogenase (quinone), mitochondrial (Mus musculus, UniProt O35435); assay: Inhibition of mouse DHODH up to 100 uM
Sequence of Dihydroorotate dehydrogenase (quinone), mitochondrial (Mus musculus, UniProt O35435) (O35435 whole entry): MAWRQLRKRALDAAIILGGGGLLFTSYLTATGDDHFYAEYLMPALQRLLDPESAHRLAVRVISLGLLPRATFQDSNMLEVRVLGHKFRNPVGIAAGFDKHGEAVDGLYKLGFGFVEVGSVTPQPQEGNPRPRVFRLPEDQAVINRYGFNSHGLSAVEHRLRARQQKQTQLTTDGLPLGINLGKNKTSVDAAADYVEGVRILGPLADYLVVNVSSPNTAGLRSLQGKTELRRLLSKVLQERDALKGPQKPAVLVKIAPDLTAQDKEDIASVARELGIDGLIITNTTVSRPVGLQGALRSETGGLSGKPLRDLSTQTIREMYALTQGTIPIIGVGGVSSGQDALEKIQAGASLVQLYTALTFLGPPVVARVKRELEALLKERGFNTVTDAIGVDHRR

[13] = biological target: Dihydroorotate dehydrogenase (quinone), mitochondrial (Rattus norvegicus, UniProt Q63707); assay: Inhibition of rat DHODH up to 100 uM
Sequence of Dihydroorotate dehydrogenase (quinone), mitochondrial (Rattus norvegicus, UniProt Q63707) (Q63707 whole entry): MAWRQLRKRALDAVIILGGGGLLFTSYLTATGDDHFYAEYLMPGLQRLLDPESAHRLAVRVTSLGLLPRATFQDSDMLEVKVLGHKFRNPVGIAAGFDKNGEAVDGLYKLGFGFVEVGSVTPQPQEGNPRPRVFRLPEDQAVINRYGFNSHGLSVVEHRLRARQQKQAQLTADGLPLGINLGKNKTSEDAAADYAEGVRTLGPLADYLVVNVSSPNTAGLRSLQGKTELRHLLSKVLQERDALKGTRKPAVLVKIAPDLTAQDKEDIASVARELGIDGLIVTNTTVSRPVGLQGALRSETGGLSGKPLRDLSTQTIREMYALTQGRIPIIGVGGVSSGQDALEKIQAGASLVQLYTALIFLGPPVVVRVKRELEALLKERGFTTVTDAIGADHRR

[14] = Inhibition of dog DHODH up to 100 uM; set-up: species or system Canis lupus familiaris
[15] = tested on: Plasmodium falciparum; assay: Antimalarial activity against Plasmodium falciparum 3D70087/N9 infected in orally dosed NOD-SCID IL2Rgamma null mouse assessed as parasitemia level in human red blood cells at 10 to 100 mg/kg, po administered days after 1 day post infection twice daily for 6 days measured on day 7 by flow cytometry; type: functional, organism-based; details: dose 10-100 mg/kg

Structure (SMILES)	pIC50 [1]	pIC50 [2]	pEC50 [3]	pIC50 [4]	also measured
Cc1c(Cc2ccc(C(F)(F)F)cc2F)c[nH]c1C(=O)NC1CC1	7.36	< 4.00	–	–	–
CCOC(=O)c1[nH]cc(Cc2nc3ccccc3o2)c1C	6.05	< 4.00	5.80	–	–
Cc1c(Cc2ccc(F)c3ccncc23)c[nH]c1C(=O)NC1CC1	8.21	< 4.00	9.04	8.40	logD [5]: < 3.4
Cc1c(Cc2ccc(F)c3ccncc23)c[nH]c1C(=O)N1CC(F)(F)C1	7.96	< 4.00	8.47	8.19	logD [5]: < 3.4
Cc1c(C2(c3ccc(C(F)(F)F)nc3)CC2)c[nH]c1C(=O)N1CC(F)(F)C1	7.68	< 4.00	8.70	7.77	–
Cc1c(Cc2ccc(C(F)(F)F)nc2F)c[nH]c1C(=O)NC1CC1	7.96	< 4.00	8.51	8.27	–
Cc1c(Cc2cccc3ccncc23)c[nH]c1C(=O)N1CC(F)(F)C1	7.80	< 4.00	8.42	8.11	logD [5]: < 3.4
COc1ccc(Cc2c[nH]c(C(=O)NC3CC3)c2C)c2cnccc12	7.64	< 4.30	8.77	7.68	logD [5]: < 3.4
Cc1c(Cc2cccc3ccncc23)c[nH]c1C(=O)NC1CC1	7.96	< 4.00	8.66	7.80	logD [5]: < 3.4
N#Cc1c(Cc2ccc(C(F)(F)F)nc2)c[nH]c1C(=O)NC1CC1	6.39	< 4.00	6.60	6.37	–
Cc1c(C2(c3ccc(C(F)(F)F)nc3)CC2)c[nH]c1C(=O)NC1CC1	7.72	< 4.00	< 5.00	7.96	–
Cc1c(Cc2cccc3ccncc23)c[nH]c1C(=O)NCC(F)(F)F	7.46	< 4.00	8.02	7.77	logD [5]: < 3.4
Cc1c(-c2c[nH]c3nc(C(F)(F)F)ccc23)c[nH]c1C(=O)NC1CC1	6.92	< 4.00	7.89	8.00	–
CCOC(=O)c1[nH]cc(Cc2cccc3ncoc23)c1C	7.00	< 4.00	6.66	7.89	–
Cc1c(Cc2nc3ccccc3o2)c[nH]c1C(=O)NC1CC1	6.17	< 4.00	6.22	–	–
Cc1c(C(=O)NC2CC2)[nH]c(Cl)c1Cc1ccc(C(F)(F)F)nc1	6.92	< 4.00	7.49	7.77	–
CCOC(=O)c1[nH]cc(Cc2ccc(C(F)(F)F)c3ncoc23)c1C	7.33	< 4.00	7.62	7.80	–
Cc1c(Cc2ccc(C(F)(F)F)nc2F)c[nH]c1C(=O)NCC(F)(F)F	7.10	< 4.00	7.70	7.28	–
Cc1c(Cc2ccc(C(F)(F)F)nc2F)c[nH]c1C(=O)N1CC(F)(F)C1	7.80	< 4.00	8.59	7.92	–
Cc1cc(C(C)NC(=O)c2[nH]cc(C(C)c3ccc(C(F)(F)F)nc3)c2C)no1 (racemic)	7.10	< 4.00	8.52	7.13	–

Structure (SMILES)	pIC50 [1]	pIC50 [2]	pEC50 [3]	pIC50 [4]	also measured
Cc1cc(C(C)NC(=O)c2[nH]cc(Cc3ccc(F)c4ccncc34)c2C)no1 (racemic)	7.44	< 4.00	8.66	7.32	–
Cc1c(Cc2ccc(C(F)(F)F)nc2)c[nH]c1C(=O)NC(C)c1cc(Br)no1 (racemic)	7.15	< 4.00	6.92	7.70	–
Cc1c(Cc2ccc(C(F)(F)F)cc2)c[nH]c1C(=O)NC(C)c1cc(Br)no1 (racemic)	6.42	< 4.00	6.59	7.41	–
Cc1cc(C(C)NC(=O)c2[nH]cc(Cc3cccc4ccncc34)c2C)no1 (racemic)	7.52	< 4.00	8.43	7.68	–
Cc1nc(C(C)NC(=O)c2[nH]cc(Cc3ccc(C(F)(F)F)nc3)c2C)no1 (racemic)	6.43	< 4.00	6.72	7.00	–
Cc1c(Cc2ccc(C(F)(F)F)cc2Br)c[nH]c1C(=O)NC(C)c1nc[nH]n1 (racemic)	6.02	< 4.00	6.00	6.59	–
COC(c1ccc(C(F)(F)F)nc1)c1c[nH]c(C(=O)NC(C)c2cc(C)on2)c1C (racemic)	6.82	< 4.00	7.40	7.00	–
Cc1c(Cc2ccc(C(F)(F)F)nc2F)c[nH]c1C(=O)NC(C)c1nc[nH]n1 (racemic)	6.00	< 4.00	6.24	6.14	–
Cc1nc(C(C)NC(=O)c2[nH]cc(Cc3ccc(C(F)(F)F)nc3)c2C)n[nH]1 (racemic)	6.17	< 4.00	6.42	6.49	–
Cc1cc(C(C)NC(=O)c2[nH]cc(C(O)c3ccc(C(F)(F)F)nc3)c2C)no1 (racemic)	6.74	< 4.00	7.66	6.89	–
Cc1cc(C(C)NC(=O)c2[nH]cc(C(C#N)c3ccc(C(F)(F)F)nc3)c2C)no1 (racemic)	6.57	< 4.00	7.68	6.39	–
Cc1nc(C(C)NC(=O)c2[nH]cc(Cc3ccc(C(F)(F)F)nc3)c2C)c[nH]1 (racemic)	4.89	< 4.00	6.42	6.30	–
Cc1c(C2(c3ccc(C(F)(F)F)nc3)CC2)c[nH]c1C(=O)NC(C)c1cc(C(N)=O)[nH]n1 (stereo in doubt; form 1)	6.85	–	–	6.77	pEC50 [6]: 7.34; F [7]: 18%
Cc1c(C2(c3ccc(C(F)(F)F)nc3)CC2)c[nH]c1C(=O)NC(C)c1c[nH]cn1 (stereo in doubt; form 1)	–	–	4.37	–	TDI [8]: Active
[2H]C([2H])(c1ccc(C(F)(F)F)nc1)c1c[nH]c(C(=O)NC(C)c2cc(C)on2)c1C (stereo in doubt; form 1)	–	–	8.33	8.04	–
Cc1c(C2(c3ccc(C(F)(F)F)c(C#N)c3)CC2)c[nH]c1C(=O)NC(C)c1nc[nH]n1 (stereo in doubt; form 1) [listing 1 of 2 here]	–	–	–	–	Activity [9]: Non-Toxic; Activity [10]: Non-Toxic; Activity [11]: Non-Toxic; inhibition (INH) [12]: Not Active; inhibition (INH) [13]: Not Active; inhibition (INH) [14]: Not Active
Cc1c(C2(c3ccc(C(F)(F)F)c(C#N)c3)CC2)c[nH]c1C(=O)NC(C)c1nc[nH]n1 (stereo in doubt; form 1) [listing 2 of 2 here]	–	–	–	–	Activity [15]: Active
Cc1cc(C(C)NC(=O)c2[nH]cc(-c3c[nH]c4cc(C(F)(F)F)ccc34)c2C)no1 (stereo in doubt; form 2)	6.18	< 4.00	–	7.24	pEC50 [6]: 7.07
Cc1c(C(=O)NC(C)c2nc[nH]n2)[nH]c(Cl)c1Cc1ccc(C(F)(F)F)nc1 (stereo in doubt; form 4)	6.54	–	–	7.00	pEC50 [6]: 6.89
